According to patent publication US9505800B2, “Extended triterpene derivatives” (Myrexis, Inc., priority 2006, dated 2016):

Columns and labels:
HIV-1IIIB virus = experiment: Determination of a compound's EC50 on MT-2 cell line (HIV-1IIIB infection, XTT/PMS viability read-out); format: cell-based; conditions: Table 1; for TI: TI = CC50:EC50 ratio
Method: Drug Preparation—The EC50 value for each compound is determined prior to determining the combination index. Each compound is tested in replicates of three, starting at a final concentration of 1 ug/mL. Compounds are dissolved in DMSO at a stock concentration of 10 mg/mL. Test compounds are serially diluted (4-fold dilutions) in a 96-flat-bottom-well plate. The initial working concentration of compound is 4× the desired final concentration. The final volume of drug per well is 45 uL. Included as controls are at least four wells containing cells only and four containing cells and virus in the absence of drug.
Virus Preparation—The HIV-1IIIB virus generated in the H9 cell line is diluted in culture media. The virus is used at a dilution that will cause 50%-75% cell death in day five post-infection as determined by XTT/PMS vital dye. Virus (45 uL) is added to all wells containing drug as well as the control wells.
Cell Preparation—MT-2 cells are added to each well at a volume of 90 uL per well at a cell concentration of 3.3×10^5 cells per mL. MT-2 cells are human T-cell leukemia cells isolated from cord blood lymphocytes and co-cultured with cells from patients with adult T-cell leukemia. […]
Assay—Culture plates are placed in a 37° C., 5% CO2, humidified incubator. […] XTT, (2,3-Bis(2-methoxy-4-nitro-5-sulfophenyl)-2H-tetrazolium-5-carboxanilide) is a yellow tetrazolium salt that, in the presence of dehydrogenase enzymes of metabolically active cells, is reduced to yield a soluble orange formazan dye, which can be measured by absorbance at 490 (or 450) nm in a microplate reader. […] For each plate to be analyzed, 5 mL of XTT/PMS is needed. […] Plates are placed uncovered into a 5% CO2, 37° C. incubator and read on plate reader at a wavelength of 450 nm after four hour incubation.
Data Compilation—The percent inhibition at a given concentration is determined by using the following formula: (average OD-virus control)/(cell control—virus control). The EC50 for each compound is calculated from the linear regression of percent inhibition.

in vitro = conditions: human
[1] = CC50 (cytotoxicity) reported beside the EC50 values; method not described; conditions: human, MT-2 cells

For `C=C(C)[C@@H]1CC[C@]2(CCN3CCOCC3)CC[C@]3(C)[C@H](CC[C@@H]4[C@@]5(C)CC[C@H](OC(=O)CC(C)(C)CC(=O)O)C(C)(C)[C@@H]5CC[C@]43C)[C@@H]12`, the EC50 (HIV-1IIIB virus; Human immunodeficiency virus 1, MT2, 120 h, extended compound vs non-extended analog, MT-2 cells, HIV-1IIIB, day 5 post infection, XTT/PMS) was 0.0221 µM, the TI (HIV-1IIIB virus) was 3387 and the CC50 (in vitro) was 74.8 µM.
With `C=C(C)[C@@H]1CC[C@]2(CN3CCOCC3)CC[C@]3(C)[C@H](CC[C@@H]4[C@@]5(C)CC[C@H](OC(=O)CC(C)(C)CC(=O)O)C(C)(C)[C@@H]5CC[C@]43C)[C@@H]12` the TI (HIV-1IIIB virus) was 135 and the CC50 [1] was 10.4 µM.
